Laboratory results published in the NIST ThermoML archive (doi:10.1016/j.tca.2013.03.025).

Experiment: xn = mol fraction of the nth substance listed
Details: 101 kPa, Liquid; for viscosity: Concentric cylinders viscometry; for mass density: Vibrating tube method

CCCCOC(=O)C(C)O (stereo not given) [butyl 2-hydroxypropanoate] + OCCCO
Details | mass density [kg/m3] | viscosity [mPa·s]
288.15 K, x1 = 0.0999 | 1046.52 | 55.22
288.15 K, x1 = 0.2 | 1037.84 | 41.92
288.15 K, x1 = 0.3001 | 1029.39 | 31.27
288.15 K, x1 = 0.4 | 1022.24 | 22.91
288.15 K, x1 = 0.4999 | 1015.45 | 16.95
288.15 K, x1 = 0.5999 | 1009.2 | 12.66
288.15 K, x1 = 0.6996 | 1003.51 | 9.596
288.15 K, x1 = 0.8001 | 997.914 | 7.373
288.15 K, x1 = 0.9 | 992.76 | 5.629
288.15 K, x1 = 1 | 987.269 | 4.628
293.15 K, x1 = 0.0999 | 1043.16 | 42.99
293.15 K, x1 = 0.2 | 1034.24 | 32.73
293.15 K, x1 = 0.3001 | 1025.58 | 24.47
293.15 K, x1 = 0.4 | 1018.23 | 18.13
293.15 K, x1 = 0.4999 | 1011.25 | 13.54
293.15 K, x1 = 0.5999 | 1004.84 | 10.21
293.15 K, x1 = 0.6996 | 999.008 | 7.805
293.15 K, x1 = 0.8001 | 993.26 | 6.064
293.15 K, x1 = 0.9 | 987.976 | 4.686
293.15 K, x1 = 1 | 982.366 | 3.88
298.15 K, x1 = 0.0999 | 1039.79 | 33.94
298.15 K, x1 = 0.2 | 1030.62 | 25.91
298.15 K, x1 = 0.3001 | 1021.73 | 19.59
298.15 K, x1 = 0.4 | 1014.19 | 14.51
298.15 K, x1 = 0.4999 | 1007.03 | 10.96
298.15 K, x1 = 0.5999 | 1000.47 | 8.355
298.15 K, x1 = 0.6996 | 994.488 | 6.444
298.15 K, x1 = 0.8001 | 988.587 | 5.056
298.15 K, x1 = 0.9 | 983.173 | 3.957
298.15 K, x1 = 1 | 977.448 | 3.307
303.15 K, x1 = 0.0999 | 1036.41 | 27.14
303.15 K, x1 = 0.2 | 1026.99 | 20.8
303.15 K, x1 = 0.3001 | 1017.87 | 15.82
303.15 K, x1 = 0.4 | 1010.14 | 11.86
303.15 K, x1 = 0.4999 | 1002.79 | 8.984
303.15 K, x1 = 0.5999 | 996.07 | 6.919
303.15 K, x1 = 0.6996 | 989.946 | 5.405
303.15 K, x1 = 0.8001 | 983.896 | 4.286
303.15 K, x1 = 0.9 | 978.359 | 3.386
303.15 K, x1 = 1 | 972.515 | 2.86
308.15 K, x1 = 0.0999 | 1033 | 21.95
308.15 K, x1 = 0.2 | 1023.33 | 16.89
308.15 K, x1 = 0.3001 | 1013.99 | 12.93
308.15 K, x1 = 0.4 | 1006.06 | 9.744
308.15 K, x1 = 0.4999 | 998.523 | 7.491
308.15 K, x1 = 0.5999 | 991.652 | 5.805
308.15 K, x1 = 0.6996 | 985.382 | 4.581
308.15 K, x1 = 0.8001 | 979.183 | 3.667
308.15 K, x1 = 0.9 | 973.522 | 2.929
308.15 K, x1 = 1 | 967.567 | 2.481
313.15 K, x1 = 0.0999 | 1029.57 | 17.95
313.15 K, x1 = 0.2 | 1019.65 | 13.87
313.15 K, x1 = 0.3001 | 1010.09 | 10.69
313.15 K, x1 = 0.4 | 1001.96 | 8.124
313.15 K, x1 = 0.4999 | 994.239 | 6.299
313.15 K, x1 = 0.5999 | 987.21 | 4.926
313.15 K, x1 = 0.6996 | 980.794 | 3.922
313.15 K, x1 = 0.8001 | 974.453 | 3.171
313.15 K, x1 = 0.9 | 968.668 | 2.558
313.15 K, x1 = 1 | 962.603 | 2.181
318.15 K, x1 = 0.0999 | 1026.13 | 14.83
318.15 K, x1 = 0.2 | 1015.95 | 11.5
318.15 K, x1 = 0.3001 | 1006.16 | 8.916
318.15 K, x1 = 0.4 | 997.828 | 6.84
318.15 K, x1 = 0.4999 | 989.925 | 5.351
318.15 K, x1 = 0.5999 | 982.743 | 4.221
318.15 K, x1 = 0.6996 | 976.184 | 3.391
318.15 K, x1 = 0.8001 | 969.697 | 2.768
318.15 K, x1 = 0.9 | 963.791 | 2.253
318.15 K, x1 = 1 | 957.624 | 1.935
323.15 K, x1 = 0.0999 | 1022.65 | 12.36
323.15 K, x1 = 0.2 | 1012.21 | 9.627
323.15 K, x1 = 0.3001 | 1002.2 | 7.519
323.15 K, x1 = 0.4 | 993.673 | 5.813
323.15 K, x1 = 0.4999 | 985.589 | 4.586
323.15 K, x1 = 0.5999 | 978.248 | 3.65
323.15 K, x1 = 0.6996 | 971.548 | 2.958
323.15 K, x1 = 0.8001 | 964.924 | 2.435
323.15 K, x1 = 0.9 | 958.899 | 2.002
323.15 K, x1 = 1 | 952.631 | 1.728
